Results as given in patent US5156955A, “Nucleoside oxidase and assay method utilizing same” (priority 1988, dated 1992).
Like-named read-outs stand apart in the source and are kept apart here.

Key:
[1] = test system: nucleoside oxidase YT-1; assay: Specificity test on laccase substrate (laccase-like activity in presence of inosine); format: biochemical, Pseudomonas maltophilia LB-86; conditions: 1 mM laccase substrate, 7 mM inosine, one unit enzyme, 5 minutes
Experimental: The present enzyme was tested for the substrate specificity of its laccase-like activity in the presence of 7 mM inosine in the following manner. One unit of the present enzyme was added to a specimen containing 7 mM of inosine and 1 mM of the laccase substrate shown in Table 5, and the mixture was allowed to stand for 5 minutes. The absorption spectrum of the specimen was obtained before and after the addition of the enzyme.

[2] = test system: nucleoside oxidase YT-1; conditions: for Amount of oxygen consumption / Amount of p-quinone formed: 0.06 μM inosine
[3] = test system: nucleoside oxidase YT-1; assay: Substrate specificity test (nucleoside oxidase activity, oxygen consumption); format: biochemical, Pseudomonas maltophilia LB-86; conditions: for Relative activity: relative to activity on inosine taken as 100; for Substrate specificity (enzyme active / not active on substance): statement in words
Experimental: (§1) The consumption of 1 μM of oxygen per minute is taken as 1 unit (U).

[4] = test system: nucleoside oxidase YT-1; assay: Influence of metal ions on the activity; format: biochemical, Pseudomonas maltophilia LB-86; conditions: metal salt 0.1 mM; enzyme 0.02 U on inosine, pH 6.0, 25° C., 10 minutes
Experimental: A solution of the enzyme (0.02 U) was caused to act on inosine at pH 6.0 and 25° C. for 10 minutes in the presence of various metal ions, and the activity of the enzyme was thereafter measured to check the influence of the metal ions on the activity.

[5] = test system: nucleoside oxidase YT-1; format: biochemical, Pseudomonas maltophilia LB-86
Experimental: A solution of the present enzyme (0.02 U) was caused to act on inosine at pH 6.0 and 25° C. for 10 minutes in the presence of various inhibitors, and the enzymatic activity was thereafter measured.

[6] = test system: nucleoside oxidase YT-1; assay: Km value; format: biochemical, Pseudomonas maltophilia LB-86; conditions: read-out: apparent Km value
Experimental: as §1

[7] = test system: nucleoside oxidase YT-1; assay: Enzymatic activity test I: oxidation reaction products and stoichiometry; format: biochemical, Pseudomonas maltophilia LB-86
Experimental: During a reaction period of 0 to 800 minutes, the reaction muxture was partly collected at suitable time intervals and analyzed by high performance liquid chromatography (HPLC) with a column of Fine SIL C18 (product of Japan Spectroscopic Co., Ltd.) using as a solvent 50 mM phosphate buffer (pH 3.0)/methanol=95/5 at a flow rate of 1.5 ml/min. Absorption was detected at 260 nm.
The amount of oxygen consumption was determined by an oxygen electrode, the amount of P-2 produced from the peak area of HPLC, and the amount of hydrogen peroxide by the phenol-4-aminoantipyrine peroxidase method and the ferrithiocyanide method (Ronald Thurman et al., Eur. J. Biochem., 25, 420-430 (1972)).

[8] = 0.02 μM 1,4-hydroquinone, 1 U enzyme, pH 7.0
[9] = 0.06 μM 1,4-hydroquinone, 1 U enzyme, pH 7.0
[10] = 0.60 μM 1,4-hydroquinone, 1 U enzyme, pH 7.0
[11] = inhibitor 1 mM, enzyme 0.02 U on inosine, pH 6.0, 25° C., 10 minutes

## Oc1ccc(O)cc1 [1,4-Hydroquinone]
[1]
  Change in absorption spectrum due to reaction: New peak at 243 nm
[2]; [8]
  Amount of oxygen consumption: 0.069 µM
  Amount of p-quinone formed: 0.019 µM
[2]; [9]
  Amount of oxygen consumption: 0.089 µM
  Amount of p-quinone formed: 0.060 µM
[2]; 0.115 μM minus 0.06 μM used for inosine, 0.12 μM 1,4-hydroquinone
  oxygen used for oxidizing 1,4-hydroquinone: 0.055 µM
[2]; 0.12 μM 1,4-hydroquinone, 1 U enzyme, pH 7.0
  Amount of p-quinone formed: 0.115 µM
[2]; 0.12 μM 1,4-hydroquinone, 1 U enzyme, pH 7.0 (Table 3)
  Amount of oxygen consumption: 0.112 µM
[2]; 0.12 μM 1,4-hydroquinone, room temperature, 10 minutes (stoichiometry test)
  Amount of oxygen consumption: 0.115 µM
[2]; [10]
  Amount of oxygen consumption: 0.115 µM
  Amount of p-quinone formed: 0.119 µM
[2]; enzyme mixed with laccase substrate, no nucleoside present
  laccase reaction without nucleoside: no reaction occurs

## O=CC[C@H](O)[C@H](O)CO [2-Deoxy-D-ribose]
[3]; substrate 20 mM
  Relative activity: 0%

## Nc1ncnc2c1ncn2[C@@H]1O[C@H](COP(=O)(O)OP(=O)(O)O)[C@@H](O)[C@H]1O [5'-ADP]
[3]; substrate 10 mM
  Relative activity: 0%

## Nc1ncnc2c1ncn2[C@@H]1O[C@H](COP(=O)(O)O)[C@@H](O)[C@H]1O [5'-AMP, 5'-adenosine monophosphate]
[3]; substrate 10 mM
  Relative activity: 0%

## Nc1ncnc2c1ncn2[C@@H]1O[C@H](COP(=O)(O)OP(=O)(O)OP(=O)(O)O)[C@@H](O)[C@H]1O [5'-ATP]
[3]; substrate 10 mM
  Relative activity: 0%

## Nc1nc2c(ncn2[C@@H]2O[C@H](COP(=O)(O)O)[C@@H](O)[C@H]2O)c(=O)[nH]1 [5'-GMP]
[3]; substrate 10 mM
  Relative activity: 0%

## Nc1ncnc2nc[nH]c12 [Adenine]
[3]; substrate 10 mM
  Relative activity: 0%

## Nc1ncnc2c1ncn2[C@@H]1O[C@H](CO)[C@@H](O)[C@H]1O [Adenosine]
[3]; substrate 10 mM
  Relative activity: 97.3%

## O=C(O)/C=C/c1ccc(O)c(O)c1 [Caffeic acid]
[1]
  Change in absorption spectrum due to reaction: New peak at 310 nm

## [Cl-].[Cl-].[Co+2] [CoCl2]
[4]
  Relative activity: 103%

## Nc1ccn([C@@H]2O[C@H](CO)[C@@H](O)[C@H]2O)c(=O)n1 [Cytidine]
[3]; substrate 10 mM
  Relative activity: 77.5%

## Nc1cc[nH]c(=O)n1 [Cytosine]
[3]; substrate 20 mM
  Relative activity: 0%

## O=P(O)(O)OC1O[C@H](CO)[C@@H](O)[C@H]1O (stereo partly drawn) [D-ribose-1-phosphoric acid]
[3]; substrate 20 mM
  Relative activity: 0%

## O=P(O)(O)OC[C@H]1OC(O)[C@H](O)[C@@H]1O (stereo partly drawn) [D-ribose-5-phosphoric acid]
[3]; substrate 20 mM
  Relative activity: 0%

## O=C[C@H](O)[C@H](O)[C@H](O)CO [D-ribose]
[3]
  Substrate specificity (enzyme active / not active on substance): not active
[3]; substrate 20 mM
  Relative activity: 0%

## Nc1ncnc2c1ncn2[C@H]1C[C@H](O)[C@@H](CO)O1 [Deoxyadenosine]
[3]; substrate 10 mM
  Relative activity: 81.4%

## Nc1nc2c(ncn2[C@H]2C[C@H](O)[C@@H](CO)O2)c(=O)[nH]1 [Deoxyguanosine]
[3]; substrate 10 mM
  Relative activity: 92.3%

## OC[C@H]1O[C@@H](n2cnc3c(O)ncnc32)C[C@@H]1O [Deoxyinosine]
[3]; substrate 10 mM
  Relative activity: 80.7%

## Cc1cn([C@H]2C[C@H](O)[C@@H](CO)O2)c(=O)[nH]c1=O [Deoxythymidine]
[3]; substrate 10 mM
  Relative activity: 77.3%

## O=C(O)CN(CCN(CC(=O)O)CC(=O)O)CC(=O)O [EDTA]
[5]; nucleoside oxidase yt-1, pH 6, 10 min, 1000 µM
  Relative activity: 101%

## O=S(=O)([O-])[O-].[Fe+2] [FeSO4]
[4]
  Relative activity: 93.4%

## Nc1nc2nc[nH]c2c(=O)[nH]1 [Guanine]
[3]; substrate 0.4 mM
  Relative activity: 0%

## Nc1nc2c(ncn2[C@@H]2O[C@H](CO)[C@@H](O)[C@H]2O)c(=O)[nH]1 [Guanosine]
[3]; substrate 10 mM
  Relative activity: 121%

## [Cl][Hg][Cl] [HgCl2]
[5]; [11]
  Relative activity: 69.2%

## NN.O=S(=O)(O)O [Hydrazine sulfate]
[5]; [11]
  Relative activity: 101%

## NO [Hydroxylamine]
[5]; [11]
  Relative activity: 87.8%
[5]; inhibitor 10 mM, enzyme 0.02 U on inosine, pH 6.0, 25° C., 10 minutes
  Relative activity: 63.2%

## O=c1[nH]cnc2nc[nH]c12 [Hypoxanthine]
[3]
  Substrate specificity (enzyme active / not active on substance): not active
[3]; substrate 5.2 mM
  Relative activity: 0%

## OC[C@H]1O[C@@H](n2cnc3c(O)ncnc32)[C@H](O)[C@@H]1O [Inosine]
[6]
  Km: 44 µM
[7]; 50 nanomoles of inosine as substrate
  hydrogen peroxide formed: No hydrogen peroxide was detected
[7]; 50 nanomoles of inosine, one U enzyme, 1 ml 100 mM phosphate buffer
  oxygen consumption: 51 nmol
[7]; from 50 nanomoles of inosine, one U enzyme
  P-2 produced: 47 nmol
[3]
  Substrate specificity (enzyme active / not active on substance): Active
[3]; substrate 10 mM
  Relative activity: 100%
